PMC9550238, “Novel TRKB agonists activate TRKB and downstream ERK and AKT signaling to protect Aβ-GFP SH-SY5Y cells against Aβ toxicity” (Aging (Albany NY), 2022)
Like-named read-outs stand apart in the source and are kept apart here.

Legend:
[1] = in vitro; assay type: in vitro ADME; settings: for Papp at 18 h, 1 μM: PAMPA
Procedure: The permeability of LMDS-1 and -2 was determined by a PAMPA-BBB assay. Firstly, 300 μl of LMDS-1 or -2 (1 μM) solution were added to the donor well (Millipore). Bupropion (a high permeability marker), piroxicam (a low permeability marker), and lucifer yellow (an integrity marker) (Sigma-Aldrich) were used as quality control (QC) compounds for comparison. The sandwich with aqueous donor on the bottom, artificial lipid membrane (PVDF filter coated with porcine polar brain lipid) in the middle, and aqueous acceptor (5% DMSO in PBS) on the top was assembled as stated. Each compound was tested in triplicate. After incubation for 18 h at the ambient temperature, the PAMPA sandwich plate was separated. The concentrations of test and QC compounds in the donor and acceptor wells were measured as stated, and the effective permeability coefficient (Pe) was computed.

[2] = test system: Aβ-GFP SH-SY5Y cells; assay: Aβ folding reporter GFP fluorescence; assay type: cell-based, Human; settings: for intensity of GFP fluorescence: untreated cells 100%; for EC50: Homo sapiens, 144 h, Aβ-GFP SH-SY5Y cells, compounds 1.2–5 μM, Dox 6 days, read-out: Aβ aggregation inhibition EC50 (GFP fluorescence)
Procedure: Human neuroblastoma SH-SY5Y-derived Aβ-GFP cells were maintained as stated. The recombinant Aβ-GFP protein has a 12 amino acid-containing linker between the fused Aβ and GFP. Doxycycline (5 μg/ml; Sigma-Aldrich) was used to induce Aβ-GFP expression.
Neuronal differentiation of Aβ-GFP SH-SY5Y cells was induced by retinoic acid (10 μM; Sigma-Aldrich). Cells on 96-well plate (2.5 × 10^4/well) were seeded on day 1, pre-treated with test compounds (1.2–5 μM) plus induced Aβ-GFP expression (5 μg/ml doxycycline) on day 2, and stained with Hoechst 33342 (0.1 μg/ml; Sigma-Aldrich) on day 8 as stated. Cell images were then captured at 482 nm excitation/536 nm emission wavelengths (ImageXpress Micro Confocal high-content system) and analyzed (MetaXpress image acquisition and analysis software) (Molecular Devices, Sunnyvale, CA, USA). In addition, ROS was quantified on day 8 following CellROX Deep Red stain (5 μM; Molecular Probes, Waltham, MA, USA) using the high-content system with excitation/emission wavelengths of 644/665 nm.

[3] = DPPH free radical scavenging assay; assay type: biochemical; settings: compounds 10–160 μM
Procedure: (§1) Thioflavin T is widely used to visualize and quantify the presence of misfolded amyloid protein aggregates in vitro [59]. […] In addition, DPPH radical (Sigma-Aldrich) was used to assay the free radical scavenging capacity of kaempferol, LM-031 and analogs (10–160 μM) as stated.

[4] = target: T1, Aβ42 peptide (Homo sapiens, UniProt P05067); assay: Thioflavin T Aβ aggregation inhibition assay; assay type: biochemical; settings: Aβ42, compounds 5–20 μM
T1 construct: assessed by using Aβ42 peptide (AnaSpec, Fremont, CA, USA); purchased AnaSpec
Procedure: as §1

[5] = test system: Aβ-GFP SH-SY5Y cells; assay: Neurite outgrowth analysis; assay type: cell-based, Human; settings: 5 μM; induced untreated 3.0, uninduced 3.9
Procedure: (§2) As stated, Aβ-GFP SH-SY5Y cells were seeded (6 × 10^4/24-well) with retinoic acid addition on day 1, treated with tested compounds (5 μM) plus induced Aβ-GFP expression (5 μg/ml doxycycline) on day 2, and stained with TUBB3 (tubulin beta 3 class III) primary antibody (1:1000; Covance #MMS-435P, Princeton, NJ, USA), goat anti-rabbit Alexa Fluor® 555 secondary antibody (1:1000; Thermo Fisher Scientific #A27039), and DAPI (4′-6-diamidino-2-phenylindole, 0.1 μg/ml; Sigma-Aldrich) on day 8 [60]. Neuronal pictures were taken using the high-content system and analyzed for neurite length (μm), process (number of neurites protruding from neuronal cell body) and branch (number of neurites extending from process) (MetaXpress neurite outgrowth application module; Molecular Devices). In each of three independent experiments, roughly 6000 cells from each sample were examined.

[6] = test system: Aβ-GFP SH-SY5Y cells; assay: TRKB RNA interference, neurite outgrowth; assay type: cell-based, Human; settings: 5 μM
Procedure: as §2
To knock down TRKB expression in Aβ-GFP SH-SY5Y cells, lentiviral short hairpin RNA (shRNA) targeting TRKB and control (scrambled) were used. Cells were plated in the presence of retinoic acid (5 × 10^5/6-well for protein analysis or 6 × 10^4/24-well for neurite outgrowth analysis) on day 1, infected with lentivirus on day 2, pretreated with test compound (5 μM) plus inducing Aβ-GFP expression on day 3, and collected for neurite outgrowth or TRKB protein analysis on day 9 as stated.

[7] = set-up: method as in PMID 32496635; settings: cited from earlier work
[8] = test system: Aβ-GFP SH-SY5Y cells; assay: ERK/PI3K kinase inhibitor treatment, immunoblot of TRKB downstream targets; assay type: cell-based, Human; settings: 5 μM; induced untreated 61–64%
[9] = test system: Aβ-GFP SH-SY5Y cells; assay: Comparison of BDNF and LMDS compounds on TRKB signaling, immunoblot; assay type: cell-based, Human; settings: 5 μM
Procedure: (§3) Total proteins from Aβ-GFP SH-SY5Y cells were prepared, quantified, electrophoretically separated and blotted as stated. Following blocking, the membrane was probed with antibody against BDNF (1:500; Santa Cruz Biotechnology #sc-546, Santa Cruz, CA, USA), BCL2 (1:200; Santa Cruz Biotechnology #sc-7382), BAX (1:200; Santa Cruz Biotechnology #sc-7480), TRKB (1:500; Cell Signaling Technology #4603, Danvers, MA, USA), p-TRKB (Y516) (1:200; GeneTex #GTX32230, Irvine, CA, USA), p-TRKB (Y816) (1:1000; Millipore #ABN1381, Billerica, MA, USA), ERK (1:1000; Cell Signaling Technology #9102), p-ERK (T202/Y204) (1:1000; Cell Signaling Technology #9101), AKT (1:1000; Abcam #ab126811, Cambridge, CB, UK), p-AKT (S473) (1:1000; Cell Signaling Technology #4060), CREB (1:500; Santa Cruz Biotechnology #sc-186), p-CREB (S133) (1:1000; Millipore #06-519), or loading control GAPDH (glyceraldehyde-3-phosphate dehydrogenase) (1:1000; MDBio #30000002, Taipei, Taiwan). The immune complexes were detected as stated.

[10] = test system: Aβ-GFP SH-SY5Y cells; assay: ERK/PI3K kinase inhibitor treatment, immunoblot of TRKB downstream targets; assay type: cell-based, Human
Procedure: Cells were plated in the presence of retinoic acid (5 × 10^5/6-well) on day 1, treated with tested compounds (5 μM) plus induced Aβ-GFP expression with doxycycline (5μg/ml) on day 2, as stated. Kinase inhibitors U0126 (an inhibitor of ERK) or wortmannin (an inhibitor of PI3K) (LC Laboratories, Woburn, MA, USA) (10 μM) were added on day 6. The cells were collected on day 8 for BDNF, BCL2, BAX, total/phosphorylated TRKB, ERK, AKT, and CREB protein analysis as previously stated.
as §3

[11] = 5 μM plus U0126 or wortmannin 10 μM
[12] = 5 μM, no kinase inhibitor, induced untreated 70–71%

T1 sequence (P05067 672-713 limits assumed): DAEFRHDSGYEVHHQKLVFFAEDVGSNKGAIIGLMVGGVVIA

SMILES: CC(NC(C)(C)C)C(=O)c1cccc(Cl)c1 (stereo not drawn) [Bupropion, bupropion, reference compound]
- Papp at 18 h, 1 μM [1]: 17.1 ± 1.09 ×10⁻⁶ cm/s

SMILES: O=c1ccc2ccccc2o1 [Coumarin, coumarin, reference compound]
- intensity of GFP fluorescence ([2]; 1.2–5 μM): 113–140%
- EC50 [2]: 9.8 µM
- EC50 [3]: 179 µM
- EC50 [4]: 25 µM

SMILES: COc1cc(/C=C/C(=O)CC(=O)/C=C/c2ccc(O)c(OC)c2)ccc1O [Curcumin, curcumin, reference compound]
- intensity of GFP fluorescence ([2]; 2.5–5 μM): 113–140%
- EC50 [2]: 6.1 µM
- neurite process [5]: 3.7–3.8

SMILES: O=c1c(O)c(-c2ccc(O)cc2)oc2cc(O)cc(O)c12 [Kaempferol, kaempferol, reference compound]
- EC50 [3]: 28 µM

SMILES: O=C(c1ccccc1)c1cc2c(O)cccc2oc1=O [LM-031, 3-benzoyl-5-hydroxychromen-2-one]
- neurite process ([6]; scrambled shRNA, induced untreated 2.6): 3.8
- neurite process ([6]; shRNA targeting TRKB): 2.5
- intensity of GFP fluorescence ([2]; 1.2–5 μM): 111–149%
- EC50 [2]: 5.9 µM
- Measured Pe ([7]; PAMPA-BBB): 4.80 ± 0.12 10^−6 cm/s
- PAMPA-BBB classification ([7]; from Pe of ref 34): BBB^+ (high)
- EC50 [3]: 104 µM
- neurite process [5]: 3.7–3.8
- EC50 [4]: 9 µM

SMILES: CCOc1ccc2cc(C(=O)c3ccccc3)c(=O)oc2c1 [LMDS-1]
- p-TRKB Y516 and Y817 [8]: 113–123%
- intensity of GFP fluorescence ([2]; 1.2–5 μM): 111–149%
- EC50 [2]: 6 µM
- EC50 [3]: 117 µM
- PAMPA-BBB classification [1]: BBB^+ (high)
- Papp at 18 h, 1 μM [1]: 14.9 ± 3.61 ×10⁻⁶ cm/s
- p-CREB ([9]; induced untreated 42%): 85–97%
- p-ERK ([9]; induced untreated 64%): 94–111%
- p-AKT ([9]; induced untreated 65%): 115–118%
- p-ERK level ([10]; 5 μM plus U0126 10 μM): 38–43%
- BAX [10, 11]: 152–191%
- BCL2 [10, 11]: 80–121%
- p-CREB [10, 11]: 52–84%
- pro- and m-BDNF [10, 11]: 65–88%
- BCL2 ([10]; 5 μM, induced untreated 44%): 156–199%
- p-CREB ([10]; 5 μM, induced untreated 66%): 127–142%
- pro- and m-BDNF ([10]; 5 μM, induced untreated 68–52%): 100–169%
- BAX ([10]; 5 μM, induced untreated 225%): 121–130%
- p-AKT level [10, 12]: 110–111%
- p-ERK level [10, 12]: 115%
- EC50 [4]: < 5 µM
